pIC50: −log10 of the molar value. Active and inactive are the calls of the source. No cut-off for these calls is given here.

This passage reports viability, inhibition and IC50 results from ChEMBL document CHEMBL4359854, “Repurposing mosloflavone/5,6,7-trimethoxyflavone-resveratrol hybrids: Discovery of novel p38-α MAPK inhibitors as potent interceptors of macrophage-dependent production of proinflammatory mediators” (Eur J Med Chem, 2019).

Data set [1] can be described thus: Cytotoxicity against LPS-induced mouse RAW264.7 cells assessed as cell viability at 1 uM incubated for 24 hrs by MTT assay relative to control. The class given is cell-based. The note with it: LPS-induced RAW264.7 cells, read-out: Activity.
Data set [2] has as its system RAW264.7. Description: Anti-inflammatory activity in mouse RAW264.7 cells assessed as inhibition of LPS-induced NO production at 1 uM preincubated for 1 hr followed by LPS addition and measured after 24 hrs by Griess reagent-based assay relative to control. The class given is functional.
Data set [3] has as its system RAW264.7. Description: Anti-inflammatory activity in mouse RAW264.7 cells assessed as inhibition of LPS-induced PGE2 production at 1 uM preincubated for 1 hr followed by LPS addition and measured after 24 hrs by EIA relative to control. Type of data set: functional.
The test system of data set [4] is RAW264.7. Description: Anti-inflammatory activity in mouse RAW264.7 cells assessed as inhibition of LPS-induced IL-6 production at 1 uM preincubated for 1 hr followed by LPS addition and measured after 24 hrs by EIA relative to control. Type of data set: functional.
Data set [5] concerns RAW264.7. Description: Anti-inflammatory activity in mouse RAW264.7 cells assessed as inhibition of LPS-induced TNFalpha production at 1 uM preincubated for 1 hr followed by LPS addition and measured after 24 hrs by EIA relative to control. The class given is functional.
Data set [6] concerns RAW264.7. Description: Anti-inflammatory activity in mouse RAW264.7 cells assessed as inhibition of LPS-induced IL-1beta production at 1 uM preincubated for 1 hr followed by LPS addition and measured after 24 hrs by EIA relative to control. The class given is functional.
In data set [7] the test system is RAW264.7. Description: Anti-inflammatory activity in mouse RAW264.7 cells assessed as inhibition of LPS-induced PGE2 production preincubated for 1 hr followed by LPS addition and measured after 24 hrs by EIA. Type of data set: functional, cell-based.
The subject of data set [8] is RAW264.7. Description: Anti-inflammatory activity in mouse RAW264.7 cells assessed as inhibition of LPS-induced PGE2 production at 0.2 uM preincubated for 1 hr followed by LPS addition and measured after 24 hrs by EIA. Type of data set: functional, cell-based.

Regarding `COc1ccc(NC(=O)c2cccc(-c3cc(=O)c4c(O)c(OC)c(OC)cc4o3)c2)cc1`, the viability at 24 h, 1 µM in data set [1] worked out at 92.8%. Also, the inhibition at 1 µM is -10.3% in data set [2]; 3.44% in data set [3]; 10.2% in data set [4]; -0.1% in data set [5]; 13.1% in data set [6].
On to `COc1cc2oc(-c3cccc(NC(=O)c4ccc5c(c4)OCO5)c3)cc(=O)c2c(O)c1OC`, for which the viability at 24 h, 1 µM in data set [1] was found to be 104%. Further, the inhibition at 1 µM in data set [2] is 7.46%; in data set [3] it was 49.3%; in data set [4], -6.67%; in data set [5], -12.1%; in data set [6] it was 11.6%.
Regarding `COc1ccc(C(=O)Nc2cccc(-c3cc(=O)c4c(OC)c(OC)c(OC)cc4o3)c2)cc1`, the viability at 24 h, 1 µM in data set [1] stood at 102%. In addition, the inhibition at 1 µM in data set [2] is 11.1%; in data set [3], 6.21%; in data set [4] it was -12.5%; in data set [5], 20.4%; in data set [6], 12.2%.
For the compound `COc1ccc(NC(=O)c2cccc(-c3cc(=O)c4c(OC)c(OC)c(OC)cc4o3)c2)cc1`, the viability at 24 h, 1 µM in data set [1] is 90%. The inhibition at 1 µM amounted to 6.87% in data set [2]; 2.29% in data set [3]; 19.2% in data set [4]; 25.3% in data set [5]; 128% in data set [6].
With `COc1cc2oc(-c3ccc(NC(=O)c4ccccc4)cc3)cc(=O)c2c(OC)c1OC`, the viability at 24 h, 1 µM in data set [1] was determined as 109%. Further, the inhibition at 1 µM in data set [2] is 9.71%; in data set [3], 7%; in data set [4], -23.2%; in data set [5] it was -8.22%; in data set [6], -30.2%.
Regarding `COc1cccc(C(=O)Nc2cccc(-c3cc(=O)c4c(OC)c(OC)c(OC)cc4o3)c2)c1`, the viability at 24 h, 1 µM in data set [1] worked out at 117%. Moreover, the inhibition at 1 µM in data set [2] is 19.9%; in data set [3] it was 2.62%; in data set [4], -52.5%; in data set [5], -88%; in data set [6], 75.6%.
Consider `COc1ccccc1NC(=O)c1cccc(-c2cc(=O)c3c(OC)c(OC)c(OC)cc3o2)c1`, for which the viability at 24 h, 1 µM in data set [1] was 101%. Further, the inhibition at 1 µM in data set [2] is 20.6%; in data set [3], 42.5%; in data set [4], -32.2%; in data set [5], 22.9%; in data set [6], 71.2%. Further, the pIC50 in data set [7] is 5.70. For the same compound, in data set [7], the inhibition entry is “Dose-dependent effect”. Further, the inhibition result in data set [8] was “Active”.
Regarding `COc1cccc(C(=O)Nc2cccc(-c3cc(=O)c4c(O)c(OC)c(OC)cc4o3)c2)c1`, the viability at 24 h, 1 µM in data set [1] is 109%. For the same compound, the inhibition at 1 µM is 6.46% in data set [2]; 35.4% in data set [3]; -6.92% in data set [4]; 33.8% in data set [5]; 35.8% in data set [6].
For the compound `COc1cccc(C(=O)Nc2ccc(-c3cc(=O)c4c(OC)c(OC)c(OC)cc4o3)cc2)c1`, the viability at 24 h, 1 µM in data set [1] was 111%. In addition, the inhibition at 1 µM was 9.41% in data set [2]; 16.1% in data set [3]; -47.5% in data set [4]; -9.17% in data set [5]; 4.65% in data set [6].
Regarding `COc1cccc(NC(=O)c2cccc(-c3cc(=O)c4c(O)c(OC)c(OC)cc4o3)c2)c1`, the viability at 24 h, 1 µM in data set [1] came out at 103%. In addition, the inhibition at 1 µM worked out at 10.9% in data set [2]; 35.4% in data set [3]; 1.96% in data set [4]; 5.85% in data set [5]; 18.5% in data set [6].
As for `COc1ccc(C(=O)Nc2cccc(-c3cc(=O)c4c(O)c(OC)c(OC)cc4o3)c2)cc1`, in data set [1], the viability at 24 h, 1 µM came out at 105%. The inhibition at 1 µM is 6.52% in data set [2]; 52.7% in data set [3]; -7.54% in data set [4]; 48.2% in data set [5]; 34.6% in data set [6].
For `COc1ccc(C(=O)Nc2ccc(-c3cc(=O)c4c(OC)c(OC)c(OC)cc4o3)cc2)cc1`, in data set [1], the viability at 24 h, 1 µM was 92.4%. The inhibition at 1 µM in data set [2] was 3.26%; in data set [3], 36.8%; in data set [4] it was -40.9%; in data set [5], 27.4%; in data set [6], -2.33%.
For `COc1ccccc1C(=O)Nc1cccc(-c2cc(=O)c3c(OC)c(OC)c(OC)cc3o2)c1`, in data set [1], the viability at 24 h, 1 µM turned out to be 99.8%. Also, the inhibition at 1 µM was 1.11% in data set [2]; 33.9% in data set [3]; -15.8% in data set [4]; -83.9% in data set [5]; 25.2% in data set [6].
As to `COc1cc2oc(-c3ccc(NC(=O)c4ccc5c(c4)OCO5)cc3)cc(=O)c2c(OC)c1OC`, the viability at 24 h, 1 µM in data set [1] was 63%.
`COc1cc2oc(-c3cccc(C(=O)Nc4ccc5c(c4)OCO5)c3)cc(=O)c2c(O)c1OC`: the viability at 24 h, 1 µM in data set [1] was 97.1%. Besides, the inhibition at 1 µM in data set [2] was -5.15%; in data set [3], -2.8%; in data set [4] it was 12.8%; in data set [5], -7.5%; in data set [6], 27.1%.
As for `COc1ccccc1NC(=O)c1cccc(-c2cc(=O)c3c(O)c(OC)c(OC)cc3o2)c1`, the viability at 24 h, 1 µM in data set [1] is 99.4%. Further, the inhibition at 1 µM in data set [2] was 7.19%; in data set [3] it was 50.5%; in data set [4] it was -21.4%; in data set [5] it was 36.1%; in data set [6], -2.41%. Besides, the pIC50 in data set [7] was 5.62. Moreover, the inhibition entry in data set [7] is “Dose-dependent effect”. The inhibition result in data set [8] was “Active”.
Turning to `COc1cc2oc(-c3cccc(C(=O)Nc4ccccc4)c3)cc(=O)c2c(O)c1OC`, the viability at 24 h, 1 µM in data set [1] stood at 103%. Besides, the inhibition at 1 µM is 5.15% in data set [2]; 20% in data set [3]; -5.27% in data set [4]; 45.6% in data set [5]; 23.3% in data set [6].
Consider `COc1cc2oc(-c3cccc(C(=O)Nc4ccc5c(c4)OCO5)c3)cc(=O)c2c(OC)c1OC`, for which, in data set [1], the viability at 24 h, 1 µM was 92%. Besides, the inhibition at 1 µM is 17% in data set [2]; 16.1% in data set [3]; 25.7% in data set [4]; 9.94% in data set [5]; -54.4% in data set [6].
`COc1cc2oc(-c3cccc(NC(=O)c4ccc5c(c4)OCO5)c3)cc(=O)c2c(OC)c1OC`: the viability at 24 h, 1 µM in data set [1] was found to be 116%. In addition, the inhibition at 1 µM in data set [2] is 7.13%; in data set [3] it was 17.1%; in data set [4], -9.56%; in data set [5], -40.6%; in data set [6] it was 38.2%.
`COc1cc2oc(-c3cccc(NC(=O)c4ccccc4)c3)cc(=O)c2c(OC)c1OC`: the viability at 24 h, 1 µM in data set [1] was 95.8%. Also, the inhibition at 1 µM was 3.31% in data set [2]; -11.3% in data set [3]; -17% in data set [4]; 20.9% in data set [5]; 16.5% in data set [6].
As for `COc1cc2oc(-c3cccc(C(=O)Nc4ccccc4)c3)cc(=O)c2c(OC)c1OC`, the viability at 24 h, 1 µM in data set [1] was determined as 90.6%. For the same compound, the inhibition at 1 µM is 13% in data set [2]; -10.9% in data set [3]; 12.5% in data set [4]; 24.2% in data set [5]; 86.8% in data set [6].
With `COc1cccc(NC(=O)c2cccc(-c3cc(=O)c4c(OC)c(OC)c(OC)cc4o3)c2)c1`, in data set [1], the viability at 24 h, 1 µM came out at 84.2%. The inhibition at 1 µM was 12.3% in data set [2]; -11.4% in data set [3]; 7.66% in data set [4]; 34.1% in data set [5]; 82.6% in data set [6].
